These results are taken from paper PMC4567410 (Virology, 2015).

One data set has as its system HIV-1Ba-L. Description: HIV-1 Ba-L replication in PBMCs. To be noted: Human immunodeficiency virus 1, PBMC, 168 h. The format is cell-based.
Data set [1] concerns HIV-1NL4-3. Description: HIV-1NL4-3 replication in H9. The conditions noted are these: H9 cells expressing A3G, 62.5 and 125 nM. The format is cell-based.
Data set [2] has as its system HIV-1NL4-3. Nature of the data set: HIV-1NL4-3 replication in SupT1. It is filed as cell-based. To be noted: SupT1 T cells lacking A3G, 62.5 and 125 nM.
For another data set, the system named is H9 cells. Nature of the data set: Cytotoxicity in H9 T cells. To be noted: concentrations greater than 125 nM.
A further data set has as its system SupT1 T cells. Description: Cytotoxicity in SupT1 T cells. The conditions noted are these: concentrations greater than 125 nM.
The subject of data set [3] is A3G. It is filed as cell-based, human. To be noted: for effect on A3G protein levels: absence of redoxal treatment.
A further data set has as its system HIV-1 89BZ167. Description: HIV-1 89BZ167 replication in PBMCs. It is filed as cell-based. The conditions noted are these: HIV-1 isolate 89BZ167 in PBMCs, 7 days, RT assay.
The next data set has as its system HIV-1 91US001. Description: HIV-1 91US001 replication in PBMCs. It is filed as cell-based. The conditions noted are these: HIV-1 isolate 91US001 in PBMCs, 7 days, RT assay.
Data set [4] has as its system HIV-1NL4-3. Description: HIV-1NL4-3 spreading infection in CEM cells. The conditions noted are these: CEM cells (high A3G); 312.5, 625, 1250 nM; 3, 6, 9 days. The format is cell-based.
Data set [5] concerns HIV-1NL4-3. Description: HIV-1NL4-3 spreading infection in CEM-SS cells. The conditions noted are these: CEM-SS cells (very low A3G); 312.5, 625, 1250 nM. The format is cell-based.
Data set [6] deals with VSV-G pseudotyped NL4-3GFPΔEnv viruses. The format is cell-based, HIV-1.
Data set [7] has the same test system. The format is cell-based, HIV-1. This is another data set of the same source.
Data set [8] has as its system Vif. Nature of the data set: Vif protein stability in transfected 293T cells, CHX time course. It is filed as cell-based, HIV-1. The conditions noted are these: 1250 nM 36 h, then CHX.
Another data set concerns the target Vif-Cul5 interaction (Human immunodeficiency virus type 1 group M subtype B, UniProt P12504). Nature of the data set: Co-immunoprecipitation of Vif and Cul5 from 293T cells. The conditions noted are these: 1250 nM, 40 h. The format is cell-based.
In a further data set the target is Vif-CBFβ interaction (Human immunodeficiency virus type 1 group M subtype B, UniProt P12504). The format is cell-based. The conditions noted are these: unpublished preliminary co-immunoprecipitation experiments.
Data set [9] has as its system A3G. The conditions noted are these: infected CEM cells, 1250 nM, 6 days post infection.
For data set [10], the system named is Vif. Nature of the data set: Western blot of Vif in HIV-1 infected CEM cell lysates. The conditions noted are these: infected CEM cells, 1250 nM.

Like-named read-outs stand apart in the source and are kept apart here.

Chain of Vif-CBFβ interaction (P12504 whole entry): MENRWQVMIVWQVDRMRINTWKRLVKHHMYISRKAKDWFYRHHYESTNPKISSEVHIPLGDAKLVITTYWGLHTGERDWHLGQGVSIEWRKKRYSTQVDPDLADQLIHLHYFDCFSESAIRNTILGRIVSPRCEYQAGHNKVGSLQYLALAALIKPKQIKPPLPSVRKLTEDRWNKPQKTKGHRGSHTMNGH
Chain of Vif-Cul5 interaction (P12504 whole entry): as above

As to `COC(=O)c1ccc(O)c2nc3c(C=O)c(O)cc(O)c3nc12` [lomofungin], the IC50 in the data set on HIV-1Ba-L was found to be 70 nM. For the same compound, the antiviral activity entry in the data set on HIV-1NL4-3 [1] was “strong antiviral activity”; with HIV-1NL4-3 [2], “not in SupT1 T cells”. The cytotoxicity result with H9 cells and in the data set with SupT1 T cells was “significant cytotoxicity” each time.
With `O=C(O)c1cc(=O)[nH]c(=O)[nH]1` [orotate], the “effect on A3G protein levels” value in the data set on A3G [3] was “no significant effect”.
Turning to `COc1cc(-c2ccc(Nc3ccccc3C(=O)O)c(OC)c2)ccc1Nc1ccccc1C(=O)O` [redoxal], the half-maximal inhibitory concentration (IC50) in the data set with HIV-1 89BZ167 amounted to 590 nM; with HIV-1 91US001, 1740 nM. For the same compound, the “inhibition of viral replication” value with HIV-1NL4-3 [4] is on record as “inhibited viral replication in a dose-dependent manner”; in the data set with HIV-1NL4-3 [5], “not CEM-SS cells”. Besides, the decrease in infectivity result in data set [6] was “approximately 50%”. In addition, the virus production entry in [7] is listed as “inhibited virus production”. Besides, the A3G protein levels entry is “increased” in the data set with A3G [3] and “modest increase” in the data set with A3G [9]. For the same compound, in the data set on A3G [3] (293T cells with A3G-3xHA and pNL4-3GFPΔEnv, 1250 nM 36 h, then CHX 4 h), the “steady-state levels of A3G protein in CHX time course” value was “stabilized”. The “increase of A3G protein levels” value with A3G [3] (virus producer 293T cells expressing HIV-1 Vif, 1250 nM) is recorded as “approximately 50%”. In the data set with Vif [8], the “effect on Vif protein stability” value is “no significant effect”. Moreover, on Vif-Cul5 interaction, the “effect on Vif-Cul5 interaction” value is “no effect”. Besides, the “effect on Vif-CBFβ interaction” value on Vif-CBFβ interaction is listed as “did not disrupt”. The Vif protein levels entry in the data set with Vif [10] is recorded as “reduced Vif protein levels”.
Take `O=c1ccn([C@@H]2O[C@H](CO)[C@@H](O)[C@H]2O)c(=O)[nH]1` [uridine]: the “effect on A3G protein levels” value in the data set on A3G [3] was “no significant effect”.
